Data from patent US20260109732A1, “LIPID AMINES” (ModernaTX, Inc., priority 2021, published 2026).
Counter-ions that a name gives are not always drawn.

Columns and labels:
[1] = Diameter and PDI from DLS measurements of mRNA nanoparticles with lipid amines; format: physicochemical
How it was run: (§1)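 DLS gave size and PDI, and Ribogreen gave encapsulation, for luciferase- or CFTR-mRNA nanoparticles (N:P 4.93). Particles came from IL1/DSPC/cholesterol/PEG-DMG-2K mixed at pH 4, mRNA-loaded, neutralized with TRIS pH 8.12, and then treated with lipid amine SA50 in pH 7.5 buffer.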

[2] = Encapsulation of mRNA nanoparticles with lipid amines using Ribogreen assay; format: physicochemical
How it was run: as §1

HeLa cells [3] = assay: Luciferase Protein Expression Assay in HeLa Cells; format: cell-based, Human; conditions: LNPs encapsulating Luciferase mRNA, 25 ng per well, N=4 wells; 5 h serum-free then 24 h; ONE-Glo
How it was run: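 Luminescence output, average RLU across N=4 wells, was measured with ONE-Glo after cell lysis. Before that, HeLa cells were exposed to 25 ng/well luciferase-mRNA nanoparticles (PBS control) for 5 h serum-free, then cultured overnight (24 h) in complete MEM.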

HeLa cells [4] = assay: CFTR Protein Expression Assay in HeLa Cells; format: cell-based, Human; conditions: LNPs encapsulating CFTR mRNA, N=4 wells; 5 h serum-free then 24 h; immunofluorescence vs PBS control
How it was run: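 Readout is fold-change in per-cell CFTR immunofluorescence intensity (488 nm, confocal imaging) relative to PBS-treated cells, from 4 replicate wells. LNPs encapsulating CFTR mRNA were applied serum-free for 5 h, followed by 24 h in complete medium before PFA fixation.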

[5] = CFTR mRNA nanoparticle with lipid amine
[6] = Luciferase mRNA nanoparticle modified with lipid amine

SMILES | Diameter (nm) [1, 5] [nm] | PDI [1, 5] | Diameter (nm) [1, 6] [nm] | PDI [1, 6] | % Encapsulation (Ribogreen) [2, 5] [%] | % Encapsulation (Ribogreen) [2, 6] [%] | Average Relative Light Units ± Standard Deviation (HeLa cells [3]) [Relative Light Units] | Average fold-change in CFTR signal intensity per cell compared to buffer control ± standard deviation (HeLa cells [4]) [fold-change]
CC(C)CCC[C@@H](C)[C@H]1CC[C@H]2[C@@H]3CC=C4C[C@@H](SSCCC(=O)N(CCC(C)N)CCC(C)N)CC[C@]4(C)[C@H]3CC[C@]12C (stereo partly drawn) [SA173, N,N-bis(3-aminobutyl)-3-(((3S,8S,9S,10R,13R,14S,17R)-10,13-dimethyl-17-((R)-6-methylheptan-2-yl)-2,3,4,7,8,9,10,11,12,13,14,15,16,17-tetradecahydro-1H-cyclopenta[a]phenanthren-3-yl)disulfaneyl)propanamide dihydrochloride] | 71.8 | 0.16 | 73 | 0.18 | 100 | 99.5 | 33596.1 ± 6033 | 13.5 ± 0.8
CC(C)CCC[C@@H](C)[C@H]1CC[C@H]2[C@@H]3CC=C4C[C@@H](OC(=O)CSSCC(=O)N(CCCN)CCCCNCCCN)CC[C@]4(C)[C@H]3CC[C@]12C [SA98, (3S,8S,9S,10R,13R,14S,17R)-10,13-dimethyl-17-((R)-6-methylheptan-2-yl)-2,3,4,7,8,9,10,11,12,13,14,15,16,17-tetradecahydro-1H-cyclopenta[a]phenanthren-3-yl 2-((2-((3-aminopropyl)(4-((3-aminopropyl)amino)butyl)amino)-2-oxoethyl)disulfaneyl)acetate trihydrochloride] | 82.8 | 0.14 | 70 | 0.15 | 93 | 97.0 | 80.7 ± 36.7 | 1.0 ± 0
CC[C@H](CC[C@@H](C)[C@H]1CC[C@H]2[C@@H]3CC=C4C[C@@H](OC(=O)CCCC(=O)N(CCCCCCCC(C)(C)N)CCC(C)(C)N)CC[C@]4(C)[C@H]3CC[C@]12C)C(C)C [SA155, (3S,8S,9S,10R,13R,14S,17R)-17-((2R,5R)-5-ethyl-6-methylheptan-2-yl)-10,13-dimethyl-2,3,4,7,8,9,10,11,12,13,14,15,16,17-tetradecahydro-1H-cyclopenta[a]phenanthren-3-yl 5-((3-amino-3-methylbutyl)(8-amino-8-methylnonyl)amino)-5-oxopentanoate dihydrochloride] | 71.1 | 0.13 | 73 | 0.11 | 99.4 | 98.9 | 31922.9 ± 8053.8 | 12.2 ± 1.0
CC(C)CCC[C@@H](C)[C@H]1CC[C@H]2[C@@H]3CC=C4C[C@@H](OC(=O)[C@H](CCCCN)NCCCCCCN)CC[C@]4(C)[C@H]3CC[C@]12C.Cl.Cl.Cl [SA131, (3S,8S,9S,10R,13R,14S,17R)-10,13-dimethyl-17-((R)-6-methylheptan-2-yl)-2,3,4,7,8,9,10,11,12,13,14,15,16,17-tetradecahydro-1H-cyclopenta[a]phenanthren-3-yl (6-aminohexyl)-L-lysinate trihydrochloride] | 83.8 | 0.14 | 72 | 0.12 | 98.6 | 99.6 | 40915.5 ± 4983.3 | 10.8 ± 0.5
CC(C)CCC[C@@H](C)[C@H]1CC[C@H]2[C@@H]3CC=C4C[C@@H](SSCCC(=O)N(CCC(C)(C)N)CCC(C)(C)N)CC[C@]4(C)[C@H]3CC[C@]12C [SA174, N,N-bis(3-amino-3-methylbutyl)-3-(((3S,8S,9S,10R,13R,14S,17R)-10,13-dimethyl-17-((R)-6-methylheptan-2-yl)-2,3,4,7,8,9,10,11,12,13,14,15,16,17-tetradecahydro-1H-cyclopenta[a]phenanthren-3-yl)disulfaneyl)propanamide dihydrochloride] | 71.1 | 0.16 | 73 | 0.17 | 98.1 | 99.5 | 31280.7 ± 5830.7 | 14.8 ± 1.4
CC[C@H](CC[C@@H](C)[C@H]1CC[C@H]2[C@@H]3CC=C4C[C@@H](OC(=O)CCC(=O)N(CCC(C)N)CCC(C)N)CC[C@]4(C)[C@H]3CC[C@]12C)C(C)C (stereo partly drawn) [SA168, (3S,8S,9S,10R,13R,14S,17R)-17-((2R,5R)-5-ethyl-6-methylheptan-2-yl)-10,13-dimethyl-2,3,4,7,8,9,10,11,12,13,14,15,16,17-tetradecahydro-1H-cyclopenta[a]phenanthren-3-yl 4-(bis(3-aminobutyl)amino)-4-oxobutanoate dihydrochloride] | 76.1 | 0.15 | 79 | 0.16 | 99.3 | 99.3 | 35639.5 ± 6688.9 | 14.8 ± 0.7
CC(C)CCC[C@@H](C)[C@H]1CC[C@H]2[C@@H]3CC=C4C[C@@H](OC(=O)CCC(=O)N(CCCCCCCC(C)N)CCC(C)N)CC[C@]4(C)[C@H]3CC[C@]12C (stereo partly drawn) [SA162, (3S,8S,9S,10R,13R,14S,17R)-10,13-dimethyl-17-((R)-6-methylheptan-2-yl)-2,3,4,7,8,9,10,11,12,13,14,15,16,17-tetradecahydro-1H-cyclopenta[a]phenanthren-3-yl 4-((3-aminobutyl)(8-aminononyl)amino)-4-oxobutanoate dihydrochloride] | 75.4 | 0.16 | 75 | 0.15 | 98.6 | 99.4 | 34454.6 ± 3101.8 | 21.3 ± 0.6
CC(C)CCC[C@@H](C)[C@H]1CC[C@H]2[C@@H]3CC=C4C[C@@H](SSCCCCC(=O)N(CCCN)CCCCCCCCN)CC[C@]4(C)[C@H]3CC[C@]12C [SA110, N-(8-Aminooctyl)-N-(3-aminopropyl)-5-(((3S,8S,9S,10R,13R,14S,17R)-10,13-dimethyl-17-((R)-6-methylheptan-2-yl)-2,3,4,7,8,9,10,11,12,13,14,15,16,17-tetradecahydro-1H-cyclopenta[a]phenanthren-3-yl)disulfaneyl)pentanamide dihydrochloride] | 84.2 | 0.15 | 70 | 0.14 | 98.8 | 98.8 | 14227 ± 2513.9 | 4.0 ± 0.2
CC(C)CCC[C@@H](C)[C@H]1CC[C@H]2[C@@H]3CC=C4C[C@@H](SSCCC(=O)N(CCCCNCCC(C)(C)N)CCC(C)(C)N)CC[C@]4(C)[C@H]3CC[C@]12C.Cl.Cl.Cl [SA138, N-(3-amino-3-methylbutyl)-N-(4-((3-amino-3-methylbutyl)amino)butyl)-3-(((3S,8S,9S,10R,13R,14S,17R)-10,13-dimethyl-17-((R)-6-methylheptan-2-yl)-2,3,4,7,8,9,10,11,12,13,14,15,16,17-tetradecahydro-1H-cyclopenta[a]phenanthren-3-yl)disulfaneyl)propanamide trihydrochloride] | 89.6 | 0.12 | 72 | 0.19 | 96.4 | 99.2 | 22039.8 ± 8550.1 | 12.1 ± 1.1
CC[C@H](CC[C@@H](C)[C@H]1CC[C@H]2[C@@H]3CC=C4C[C@@H](OC(=O)CCCCC(=O)N(CCCN)CCCCNCCCN)CC[C@]4(C)[C@H]3CC[C@]12C)C(C)C [SA90, (3S,8S,9S,10R,13R,14S,17R)-17-((2R,5R)-5-ethyl-6-methylheptan-2-yl)-10,13-dimethyl-2,3,4,7,8,9,10,11,12,13,14,15,16,17-tetradecahydro-1H-cyclopenta[a]phenanthren-3-yl 6-((3-aminopropyl)(4-((3-aminopropyl)amino)butyl)amino)-6-oxohexanoate trihydrochloride] | 84.6 | 0.14 | 76 | 0.19 | 98.1 | 99.6 | 9337.4 ± 3055.2 | 4.2 ± 0.4
